Experimental findings from patent publication US20080193398A1, “Derivatives of Heptaazaphenalene, Methods for Obtaining Them, and Their Use as Protecting Agents Against Uv Radiation” (ISDIN, S.A., priority 2005, published 2008) are described below.

A word on the melting point: it is the temperature of the solid-liquid transition.

Values joined by “and” are separate entries in the source; they are usually repeats but may differ in a detail not shown here. Equal entries are not always repeated. Bounds are passed on as bounds.

One data set can be described thus: UV absorption (UV λmax and εmax) in solution. The settings on record: CHCl3. It counts as physicochemical. An excerpt: There follow some examples where the UV λmax and εmax have been measured according to general methods known for the person skilled in the art by way of non-restrictive illustration of the present invention.
On to `CCCCC(CC)COC(=O)c1ccc(NC2=NC3=NC(Nc4ccc(C(=O)OCC(CC)CCCC)cc4)=NC4=NC(Nc5ccc(C(=O)OCC(CC)CCCC)cc5)=NC(=N2)N34)cc1` (stereo not drawn) [Example 2, 2,5,8-tris-(4-(2-ethylhexyloxycarbonyl)phenylamino)-1,3,4,6,7,9,9b-heptaazaphenalene], for which the “UV λmax” value stood at 326 nm and the εmax is 95000 M⁻¹ cm⁻¹.

The data set is the same for the next values; noted with them: CHCl3-MeOH.
For the compound `c1ccc2[nH]c(-c3ccc(NC4=NC5=NC(Nc6ccc(-c7nc8ccccc8[nH]7)cc6)=NC6=NC(Nc7ccc(-c8nc9ccccc9[nH]8)cc7)=NC(=N4)N56)cc3)nc2c1` [Example 7, 2,5,8-tris-(4-(1H-benzo[d]imidazol-2-yl)phenylamino)-1,3,4,6,7,9,9b-heptaazaphenalene], the “UV λmax” value stood at 358 nm and the εmax amounted to 107000 M⁻¹ cm⁻¹.

Staying with this data set, now noted: CHCl3—EtOH.
For `CCCCOC(=O)c1ccc(NC2=NC3=NC(Nc4ccc(C(=O)OCCCC)cc4)=NC4=NC(Nc5ccc(C(=O)OCCCC)cc5)=NC(=N2)N34)cc1` [Example 1, 2,5,8-tris-(4-(butoxycarbonyl)phenylamino)-1,3,4,6,7,9,9b-heptaazaphenalene], the “UV λmax” value came out at 325 nm and the εmax came out at 100000 M⁻¹ cm⁻¹.

The same data set, now with this note: DMSO.
As for `CCCCC(CC)CNC1=NC2=NC(NCC(CC)CCCC)=NC3=NC(NCC(CC)CCCC)=NC(=N1)N23` (stereo not drawn) [Example 29, 2,5,8-tris-(2-ethylhexylamino)-1,3,4,6,7,9,9b-heptaazaphenalene], the “UV λmax” value worked out at 265 nm and the εmax was found to be 92000 M⁻¹ cm⁻¹.
As for `c1ccc(Nc2ccc(NC3=NC4=NC(Nc5ccc(Nc6ccccc6)cc5)=NC5=NC(Nc6ccc(Nc7ccccc7)cc6)=NC(=N3)N45)cc2)cc1` [Example 27, 2,5,8-tris-(4-(phenylamino)phenylamino)-1,3,4,6,7,9,9b-heptaazaphenalene], the “UV λmax” value is 360 nm and the εmax is 60000 M⁻¹ cm⁻¹.
As for `CCCCCCCCCCCCOC(=O)c1ccc(NC2=NC3=NC(Nc4ccc(C(=O)OCCCCCCCCCCCC)cc4)=NC4=NC(Nc5ccc(C(=O)OCCCCCCCCCCCC)cc5)=NC(=N2)N34)cc1` [Example 44, 2,5,8-tris-(4-(dodecyloxycarbonyl)phenylamino)-1,3,4,6,7,9,9b-heptaazaphenalene], the “UV λmax” value is 326 nm and the εmax was determined as 87000 M⁻¹ cm⁻¹.
As for `c1ccc(-c2ccc(NC3=NC4=NC(Nc5ccc(-c6ccccc6)cc5)=NC5=NC(Nc6ccc(-c7ccccc7)cc6)=NC(=N3)N45)cc2)cc1` [Example 6, 2,5,8-tris-(biphenyl-4-ylamino)-1,3,4,6,7,9,9b-heptaazaphenalene], the “UV λmax” value is 333 nm and the εmax is 103000 M⁻¹ cm⁻¹.
Take `c1ccc(-c2ccc(OC3=NC4=NC(Oc5ccc(-c6ccccc6)cc5)=NC5=NC(Oc6ccc(-c7ccccc7)cc6)=NC(=N3)N45)cc2)cc1` [Example 19, 2,5,8-tris-(biphenyl-4-yloxy)-1,3,4,6,7,9,9b-heptaazaphenalene]: the “UV λmax” value is given as 262 nm and the εmax came out at 81000 M⁻¹ cm⁻¹.
The like results for `c1cnn(-c2ccc(NC3=NC4=NC(Nc5ccc(-n6cccn6)cc5)=NC5=NC(Nc6ccc(-n7cccn7)cc6)=NC(=N3)N45)cc2)c1` [Example 15, 2,5,8-tris-(4-(1H-pyrazol-1-yl)phenylamino)-1,3,4,6,7,9,9b-heptaazaphenalene] were, in that order, 330 nm and 99000 M⁻¹ cm⁻¹.
Regarding `CCCCOC(=O)c1ccc(NC2=NC3=NC(Nc4ccc(C(=O)OCCCC)cc4)=NC4=NC(c5cn(C)c6ccccc56)=NC(=N2)N34)cc1` [Example 18], the “UV λmax” value is 337 nm and the εmax was 65000 M⁻¹ cm⁻¹.
The like results for `c1cc2cc(NC3=NC4=NC(Nc5ccc6[nH]ccc6c5)=NC5=NC(Nc6ccc7[nH]ccc7c6)=NC(=N3)N45)ccc2[nH]1` [Example 46, 2,5,8-tris-(1H-indol-5-ylamino)-1,3,4,6,7,9,9b-heptaazaphenalene] were, in that order, 331 nm and 46000 M⁻¹ cm⁻¹.
In the case of `Cc1ccc(C2=NC3=NC(c4ccc(C)cc4)=NC4=NC(c5ccc(C)cc5)=NC(=N2)N34)cc1` [Example 25, 2,5,8-tris-(4-methylphenyl)-1,3,4,6,7,9,9b-heptaazaphenalene], the “UV λmax” value was found to be 327 nm and the εmax was 86000 M⁻¹ cm⁻¹.
`Cc1cc(N)c(NC2=NC3=NC(Nc4cc(C)c(C)cc4N)=NC4=NC(Nc5cc(C)c(C)cc5N)=NC(=N2)N34)cc1C` [Example 48, 2,5,8-tris-(2-amino-4,5-dimethylphenylamino)-1,3,4,6,7,9,9b-heptaazaphenalene]: the “UV λmax” value came out at 270 nm and the εmax was 44000 M⁻¹ cm⁻¹.
In the same order, the values of `COC(=O)c1ccc(-c2ccc(NC3=NC4=NC(Nc5ccc(-c6ccc(C(=O)OC)cc6)cc5)=NC5=NC(Nc6ccc(-c7ccc(C(=O)OC)cc7)cc6)=NC(=N3)N45)cc2)cc1` [Example 23, 2,5,8-tris-(methoxycarbonyl-4′-biphenyl-4-ylamino)-1,3,4,6,7,9,9b-heptaazaphenalene] are 346 nm and 99000 M⁻¹ cm⁻¹.
Take `CCCCCCCCC(CCCCCC)COC(=O)c1ccc(NC2=NC3=NC(Nc4ccc(C(=O)OCC(CCCCCC)CCCCCCCC)cc4)=NC4=NC(Nc5ccc(C(=O)OCC(CCCCCC)CCCCCCCC)cc5)=NC(=N2)N34)cc1` (stereo not drawn) [Example 38, 2,5,8-tris-(4-(^2-hexyldecyloxycarbonyl)phenylamino)-1,3,4,6,7,9,9b-heptaazaphenalene]: the “UV λmax” value is reported as 324 nm and the εmax came to 121000 M⁻¹ cm⁻¹.
Turning to `c1ccn2cc(-c3ccc(NC4=NC5=NC(Nc6ccc(-c7cn8ccccc8n7)cc6)=NC6=NC(Nc7ccc(-c8cn9ccccc9n8)cc7)=NC(=N4)N56)cc3)nc2c1` [Example 3, 2,5,8-tris-(4-(imidazo[1,2-a]pyridin-2-yl)-phenylamino)-1,3,4,6,7,9,9b-heptaazaphenalene], the “UV λmax” value worked out at 353 nm and the εmax worked out at 75000 M⁻¹ cm⁻¹.
With `O=[N+]([O-])c1cccc(NC2=NC3=NC(Nc4cccc([N+](=O)[O-])c4)=NC4=NC(Nc5cccc([N+](=O)[O-])c5)=NC(=N2)N34)c1` [Example 35, 2,5,8-tris-(3-nitrophenylamino)-1,3,4,6,7,9,9b-heptaazaphenalene], the “UV λmax” value is recorded as 308 nm and the εmax came out at 113000 M⁻¹ cm⁻¹.
In the same order, the values of `CC(C)[C@@H]1CC[C@@H](C)C[C@H]1OC(=O)c1ccc(NC2=NC3=NC(Nc4ccc(C(=O)O[C@@H]5C[C@H](C)CC[C@H]5C(C)C)cc4)=NC4=NC(Nc5ccc(C(=O)O[C@@H]6C[C@H](C)CC[C@H]6C(C)C)cc5)=NC(=N2)N34)cc1` [Example 30, 2,5,8-tris-(4-(L-menthylcarbonyl)phenylamino)-1,3,4,6,7,9,9b-heptaazaphenalene] are 326 nm and 118000 M⁻¹ cm⁻¹.
As for `CC12CCC(C1)C(C)(C)C2OC(=O)c1ccc(NC2=NC3=NC(Nc4ccc(C(=O)OC5C6(C)CCC(C6)C5(C)C)cc4)=NC4=NC(Nc5ccc(C(=O)OC6C7(C)CCC(C7)C6(C)C)cc5)=NC(=N2)N34)cc1` (stereo not drawn) [Example 45], the “UV λmax” value is recorded as 330 nm and the εmax amounted to 150000 M⁻¹ cm⁻¹.
With `COc1ccc(NC2=NC3=NC(Nc4ccc(OC)cc4)=NC4=NC(Nc5ccc(OC)cc5)=NC(=N2)N34)cc1` [Example 21, 2,5,8-tris-(4-methoxyphenylamino)-1,3,4,6,7,9,9b-heptaazaphenalene], the “UV λmax” value is given as 324 nm and the εmax was 59000 M⁻¹ cm⁻¹.
`CCCCC(CC)COC(=O)/C=C/c1ccc(NC2=NC3=NC(Nc4ccc(/C=C/C(=O)OCC(CC)CCCC)cc4)=NC4=NC(Nc5cccc(/C=C/C(=O)OCC(CC)CCCC)c5)=NC(=N2)N34)cc1` (stereo not drawn) [Example 34, 2-(3-((E)-3-(2-ethylhexyloxy)-3-oxoprop-1-enyl)phenylamino)-5,8-bis-(4-((E) -3-(2-ethylhexyloxy)-3-oxoprop-1-enyl)phenylamino)-1,3,4,6,7,9,9b-heptaazaphenalene]: the “UV λmax” value was 288 nm and 354 nm; the εmax was 66000 M⁻¹ cm⁻¹ and 113000 M⁻¹ cm⁻¹.
Take `C(=C\c1cccc(NC2=NC3=NC(Nc4cccc(/C=C/c5ccccc5)c4)=NC4=NC(Nc5cccc(/C=C/c6ccccc6)c5)=NC(=N2)N34)c1)/c1ccccc1` [Example 37, 2,5,8-tris-((3-(E)-styrylphenyl)amino)-1,3,4,6,7,9,9b-heptaazaphenalene]: the “UV λmax” value was determined as 316 nm and the εmax stood at 167000 M⁻¹ cm⁻¹.
As to `CCCCCCCCCCCCCCCCCCOC(=O)c1ccc(NC2=NC3=NC(Nc4ccc(C(=O)OCCCCCCCCCCCCCCCCCC)cc4)=NC4=NC(Nc5ccc(C(=O)OCCCCCCCCCCCCCCCCCC)cc5)=NC(=N2)N34)cc1` [Example 40, 2,5,8-tris-(4-(octadecyloxycarbonyl)phenylamino)-1,3,4,6,7,9,9b-heptaazaphenalene], the “UV λmax” value is 324 nm and the εmax came to 117000 M⁻¹ cm⁻¹.

The same data set, now with this note: EtOH.
For `Cc1cc2c(n1-c1ccc(NC3=NC4=NC(Nc5ccc(-n6c(C)cc7c6CC(C)(C)CC7=O)cc5)=NC5=NC(Nc6ccc(-n7c(C)cc8c7CC(C)(C)CC8=O)cc6)=NC(=N3)N45)cc1)CC(C)(C)CC2=O` [Example 4, 2,5,8-tris-(4-(4,5,6,7-tetrahydro-2,6,6-trimethyl-4-oxoindol-1-yl)phenylamine)-1,3,4,6,7,9,9b-heptaazaphenalene], the “UV λmax” value is given as 314 nm and the εmax stood at 103000 M⁻¹ cm⁻¹.

Experiment in a further data set: not given
Settings: not given
For `CCCCOC(=O)c1ccc(NC2=NC3=NC(Nc4ccc(C(=O)OCCCC)cc4)=NC4=NC(Nc5ccc(C(=O)OCCCC)cc5)=NC(=N2)N34)cc1` [Example 1, 2,5,8-tris-(4-(butoxycarbonyl)phenylamino)-1,3,4,6,7,9,9b-heptaazaphenalene], the melting point fell in the range of 289 to 290 °C.
The compound `c1cnn(-c2ccc(NC3=NC4=NC(Nc5ccc(-n6cccn6)cc5)=NC5=NC(Nc6ccc(-n7cccn7)cc6)=NC(=N3)N45)cc2)c1` [Example 15, 2,5,8-tris-(4-(1H-pyrazol-1-yl)phenylamino)-1,3,4,6,7,9,9b-heptaazaphenalene] gave a melting point of 224 to 227 °C.
As for `c1ccc2[nH]c(-c3ccc(NC4=NC5=NC(Nc6ccc(-c7nc8ccccc8[nH]7)cc6)=NC6=NC(Nc7ccc(-c8nc9ccccc9[nH]8)cc7)=NC(=N4)N56)cc3)nc2c1` [Example 8, 2,5,8-tris-(4-(1H-benzo[d]imidazol-2-yl)phenylamino)-1,3,4,6,7,9,9b-heptaazaphenalene], the melting point was greater than 275 °C.
Same read-out and setting: next, `CC(C)[C@@H]1CC[C@@H](C)C[C@H]1OC(=O)c1ccc(NC2=NC3=NC(Nc4ccc(C(=O)O[C@@H]5C[C@H](C)CC[C@H]5C(C)C)cc4)=NC4=NC(Nc5ccc(C(=O)O[C@@H]6C[C@H](C)CC[C@H]6C(C)C)cc5)=NC(=N2)N34)cc1` [Example 30, 2,5,8-tris-(4-(L-menthylcarbonyl)phenylamino)-1,3,4,6,7,9,9b-heptaazaphenalene]: 202 to 206 °C.
`CCCCC(CC)COC(=O)c1ccc(NC2=NC3=NC(Nc4ccc(C(=O)OCC(CC)CCCC)cc4)=NC4=NC(Nc5ccc(C(=O)OCC(CC)CCCC)cc5)=NC(=N2)N34)cc1` (stereo not drawn) [Example 2, 2,5,8-tris-(4-(2-ethylhexyloxycarbonyl)phenylamino)-1,3,4,6,7,9,9b-heptaazaphenalene] showed a melting point of 183 to 186 °C.
For `c1ccc(-c2ccc(NC3=NC4=NC(Nc5ccc(-c6ccccc6)cc5)=NC5=NC(Nc6ccc(-c7ccccc7)cc6)=NC(=N3)N45)cc2)cc1`, the melting point was greater than 310 °C.
